Measurements: patent US20260232619A1, “TREATMENT OF NEUROLOGICAL DISORDERS WITH ALLICIN AND ANALOGUES THEREOF” (KATHOLIEKE UNIVERSITEIT LEUVEN, priority 2023, published 2026)
Entries after “also recorded” stand apart in the source; their conditions may differ.

Experiments:
[1] = test system: scn1lab−/− larvae; experiment: Locomotor activity assessment in zebrafish scn1lab−/− mutant model of Dravet syndrome; type: in vivo, zebrafish (Danio rerio)
Protocol: (§1) FIG. 2. […] (A) Anti-seizure treatment schedule: 3 dpf scn1lab−/− larvae were exposed to the MTC of allicin or VHC control. 2 days later, abnormal locomotor behavior and epileptiform brain activity of treated larvae was analyzed using an automated tracking device (Noldus) and local field potential recordings, respectively. (B) The normalized cumulative duration of activity (%) is represented as mean±SEM. According to the treatment schedule depicted in panel A, anti-seizure effect of allicin was examined in scnLab−/− larvae at 5 dpf (n=22), and compared to VHC treated scnLab−/− larvae (n=24). VHC treated scn1Lab+/+ larvae (n=24) were included as control. (C) The average number of epileptiform events per 10-minute recording is represented as mean±SEM. Treatment schedule depicted in panel A was followed. Accordingly, electrophysiological effect of allicin was examined in scnLab−/− larvae at 5 dpf (n=15), and compared to VHC treated scnLab−/− larvae (n=15). VHC treated scn1Lab+/+ larvae (n=8) were included as control (D) Early treatment schedule: 1 dpf scn1lab−/− larvae were dechorionated and exposed to the MTC of allicin or VHC control. 2 days later, swimming medium of the larvae was replenished with identical concentrations of allicin or VHC, respectively. At 5 dpf, abnormal locomotor behavior and epileptiform brain activity of treated larvae was analyzed using an automated tracking device (Noldus) and local field potential recordings, respectively. (continued on page 6)(continued from page 5) (E) The normalized cumulative duration of activity (%) is represented as mean±SEM. […] At 5 dpf, abnormal locomotor behavior and epileptiform brain activity of treated larvae was analyzed using an automated tracking device (Noldus) and local field potential recordings, respectively. […]
(§2) The mutant larval fish typically develop signs of epilepsy (hyperlocomotor activity, abnormal brain electrical discharges as assessed by Local Field Potential (LFP) measurements) at 4-5 dpf (days post-fertilization). […]

[2] = test system: scn1lab−/− larvae; experiment: Non-invasive local field potential (LFP) recordings in zebrafish scn1lab−/− mutant model of Dravet syndrome; type: in vivo, zebrafish (Danio rerio)
Protocol: as §1, §2

C=CCS[S@@+]([O-])CC=C (racemic) [allicin, S-(Prop-2-en-1-yl) prop-2-ene-1-sulfinothioate]
abnormal locomotor behavior (hyperlocomotor activity) compared to VHC treated controls ([1]; anti-seizure treatment schedule: allicin at MTC from 3 dpf onwards (after seizure onset), measured at 5 dpf (FIG. 2B)): did not demonstrate significant decreases; also recorded: rescue effect is not present
abnormal hyperactive behavior compared to VHC controls ([1]; early treatment schedule: dechorionated at 1 dpf, exposed to allicin at MTC for 4 days, measured at 5 dpf (FIG. 2E)): highly significant decreases
typical symptoms of epilepsy: hyperlocomotor activity ([1]; exposed during the 0-3 dpf period to non-toxic concentrations, measured at 5 dpf): are not present
epileptiform brain activity compared to VHC treated controls ([2]; anti-seizure treatment schedule: allicin at MTC from 3 dpf onwards (after seizure onset), LFP at 5 dpf (FIG. 2C)): did not demonstrate significant decreases; also recorded: rescue effect is not present
epileptiform events ([2]; early treatment schedule: dechorionated at 1 dpf, exposed to allicin at MTC for 4 days, LFP at 5 dpf (FIG. 2F)): significantly reduced to similar levels as observed in wild-type and heterozygous siblings
typical symptoms of epilepsy: abnormal brain electrical discharges ([2]; exposed during the 0-3 dpf period to non-toxic concentrations, measured at 5 dpf (data not shown)): are not present
